What was measured:
[1] = humans; cited from earlier work
[2] = system: mdx mouse diaphragm muscle; assay: Fluorescence staining of nanoparticle and rapamycin deposition in mdx diaphragm; format: in vivo; details: mdx mouse treated with rapamycin-loaded nanoparticles
Source text: The nanoparticles were rhodamine-labeled, and the rapamycin was labeled with Cy-7.

- distribution of Cy-7 labeled rapamycin in diaphragm muscle [2]: both punctate and diffuse staining
SMILES: CO[C@H]1C[C@@H]2CC[C@@H](C)[C@@](O)(O2)C(=O)C(=O)N2CCCC[C@H]2C(=O)O[C@H]([C@H](C)C[C@@H]2CC[C@@H](O)[C@H](OC)C2)CC(=O)[C@H](C)/C=C(\C)[C@@H](O)[C@@H](OC)C(=O)[C@H](C)C[C@H](C)/C=C/C=C/C=C/1C [rapamycin]
- oral absorption [1]: 18%
